Several values for one entry are separate records, joined by “and”; a condition that tells them apart may be missing. Equal values may be shown once. Read-outs that look alike come from different tables or passages of the source.
Columns and labels:
hCB1R [1] = target: T1, hCB1R (Homo sapiens, UniProt P21554); test: [3H]CP55,940 displacement assay on CHO membranes, CB1R; type: binding; design: host or cells: CHO-K1 (CHOK1hCB1_bgal); conditions: for Ki: [3H]CP55,940 displacement
Target sequence in this assay (P21554 whole entry): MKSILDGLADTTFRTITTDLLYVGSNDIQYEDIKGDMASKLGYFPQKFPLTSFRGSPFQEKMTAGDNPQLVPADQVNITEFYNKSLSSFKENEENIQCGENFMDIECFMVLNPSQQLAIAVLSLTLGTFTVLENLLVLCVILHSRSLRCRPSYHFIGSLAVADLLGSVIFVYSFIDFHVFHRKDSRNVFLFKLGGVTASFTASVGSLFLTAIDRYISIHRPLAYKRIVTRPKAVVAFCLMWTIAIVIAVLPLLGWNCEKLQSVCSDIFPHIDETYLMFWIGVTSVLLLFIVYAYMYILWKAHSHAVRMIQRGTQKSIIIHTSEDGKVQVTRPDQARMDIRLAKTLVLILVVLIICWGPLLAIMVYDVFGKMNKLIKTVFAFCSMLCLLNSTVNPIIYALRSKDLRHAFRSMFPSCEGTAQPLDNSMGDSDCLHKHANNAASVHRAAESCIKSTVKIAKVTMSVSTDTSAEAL

[2] = Photophysical characterization in PBS; type: physicochemical; conditions: PBS pH 7.4
hCB1R [3] = target: T1, hCB1R; test: HTRF cAMP assay, antagonist mode (forskolin with CP55,940); conditions: for Emax: read-out: Variation of Emax
Target sequence in this assay (P21554 whole entry): as above
Description: The homogeneous time-resolved fluorescence (HTRF) cAMP assay was conducted following the manufacturer’s protocol for the cAMP-Gs Dynamic kit. […] After 15 min, reactions were stopped by the 1× cAMP-d2 conjugate in lysis buffer (5 μL/well), followed by 1× anti-cAMP cryptate conjugate in lysis buffer (5 μL/well). Following a 1 h incubation at room temperature, the plates were read in a Revvity Envision reader for time-resolved fluorescence resonance energy transfer detection at 620 and 665 nm. The HTRF ratio versus compound concentrations was plotted using Prism 8.1 (GraphPad). HTRF ratio = (signal 665 nm/signal 620 nm) × 10^4.

human CB2R = target: T2, human CB2R (Homo sapiens, UniProt P34972); test: [3H]CP55,940 displacement assay on CHO membranes, CB2R; type: binding; conditions: for hCB2R % displacement at 10 µM: [3H]CP55,940 displacement at 10 µM compound, ± SEM; for Ki: [3H]CP55,940 displacement
T2 construct: host or cells: CHO-K1 (CHOK1hCB2_bgal)
T2 sequence (P34972 whole entry): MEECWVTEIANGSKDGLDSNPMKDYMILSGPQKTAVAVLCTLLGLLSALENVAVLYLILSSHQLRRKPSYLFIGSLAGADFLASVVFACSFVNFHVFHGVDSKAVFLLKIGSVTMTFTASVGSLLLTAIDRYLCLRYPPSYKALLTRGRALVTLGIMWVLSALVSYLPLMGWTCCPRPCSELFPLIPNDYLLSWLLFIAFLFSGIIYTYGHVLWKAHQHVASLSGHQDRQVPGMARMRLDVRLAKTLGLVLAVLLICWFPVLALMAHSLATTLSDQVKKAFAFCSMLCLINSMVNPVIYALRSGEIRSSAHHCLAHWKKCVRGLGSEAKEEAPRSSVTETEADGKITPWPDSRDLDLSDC

hCB1R [4] = target: T1, hCB1R; test: HTRF cAMP assay, agonist / inverse agonist mode; type: cell-based; design: expressed in transfected cells; host or cells: CHO; conditions: for Functional activity at CB1R (in words): CB1R cAMP HTRF assay
Target sequence in this assay (P21554 whole entry): as the sequence (P21554 whole entry) above

hCB1R [5] = target: T1, hCB1R; test: biochemical
Target sequence in this assay (P21554 91-472): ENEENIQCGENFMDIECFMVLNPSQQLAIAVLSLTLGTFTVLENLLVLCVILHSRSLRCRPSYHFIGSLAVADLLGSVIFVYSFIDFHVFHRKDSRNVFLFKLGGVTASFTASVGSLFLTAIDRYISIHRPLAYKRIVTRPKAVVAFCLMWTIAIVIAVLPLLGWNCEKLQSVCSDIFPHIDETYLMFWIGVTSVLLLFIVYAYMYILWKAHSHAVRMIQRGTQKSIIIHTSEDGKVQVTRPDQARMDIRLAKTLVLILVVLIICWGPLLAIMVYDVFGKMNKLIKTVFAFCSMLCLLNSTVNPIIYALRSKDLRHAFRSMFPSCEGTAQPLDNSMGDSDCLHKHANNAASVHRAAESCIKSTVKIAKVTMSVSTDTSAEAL

CB1R [6] = conditions: cited from earlier work
CB1R [7] = test system: CB1R; design: method as in PMID 8070571, PMID 27240274, PMID 24175572; conditions: cited from earlier work
CB2R = conditions: cited from earlier work
CB1R [8] = test: Literature affinity of drug-like ligands, CB1R (Figure 2); type: binding; conditions: from literature Ki values
hCB1R [9] = conditions: cited from earlier work
[10] = hCB1R Ki, CHO membranes stably expressing human CB1R, means of three experiments
[11] = CHO membranes stably expressing human CB2R, means of three experiments, read-out: hCB2R Ki
[12] = hCB2R Ki, CHO membranes stably expressing human CB2R, means of three experiments

Structure (SMILES): CCC(CC)(NC(=O)c1cc(-c2cc(C(F)(F)F)ccc2C(F)(F)F)n(C[C@H]2CCCO2)c1C)C(=O)NCCOCCOCCNc1ccc([N+](=O)[O-])c2nonc12 [Compound 28, (R)-5-(2,5-Bis(trifluoromethyl)phenyl)-2-methyl-N-(3-((2-(2-(2-((7-nitrobenzo[c][1,2,5]oxadiazol-4-yl)amino)ethoxy)ethoxy)ethyl)carbamoyl)pentan-3-yl)-1-((tetrahydrofuran-2-yl)methyl)-1H-pyrrole-3-carboxamide]
- Ki (hCB1R [1]; [10]): 97 nM
- Ki(CB2R)/Ki(CB1R) (hCB1R [1]; radioligand binding Ki ratio): > 103
- Abs (absorbance maximum) [2]: 475 nm
- Em (emission maximum) [2]: 550 nm
- QY (quantum yield) [2]: 1.3%
- IC50 (hCB1R [3]): 398 nM
- Emax (hCB1R [3]): -97%
- hCB2R % displacement at 10 µM (human CB2R): 41 ± 2%
- Ki (human CB2R; [11]): > 10000 nM
- Emax (hCB1R [4]): -62%
- IC50 (hCB1R [4]): 16.6 nM
- Functional activity at CB1R (in words) (hCB1R [4]): inverse agonists

Structure (SMILES): CCCCCCC(C)(C)c1cc(O)c2c(c1)OC(C)(C)[C@@H]1CC=C(CO)C[C@@H]21 [HU210]
- Kd (hCB1R [5]): 3.04 nM
- koff (hCB1R [5]): 0.00183 s⁻¹
- kon (hCB1R [5]): 623000 M⁻¹ s⁻¹
- Ki (hCB1R [5]; Ki): 2.08 nM and 1.26 nM
- Ki (hCB1R [5]; pKi): 2.04 nM
- residence time (hCB1R [5]; read-out: RT (residence time)): 9.1 min

Structure (SMILES): CCOC(=O)C(CC)(CC)NC(=O)c1nn(-c2ccc(Cl)cc2Cl)c2c1CCCc1cc(Cl)ccc1-2 [Compound 16, Ethyl 2-(8-Chloro-1-(2,4-dichlorophenyl)-1,4,5,6-tetrahydrobenzo[6,7]cyclohepta[1,2-c]pyrazole-3-carboxamido)-2-ethylbutanoate]
- Ki (hCB1R [1]; hCB1R pKi ± SEM, CHO membranes): 17.8 nM
- Ki (human CB2R; hCB2R pKi ± SEM, CHO membranes): 3.98 nM
- Functional activity at CB1R (in words) (hCB1R [4]): no activity

Structure (SMILES): COCCOc1ncc(C(=O)NC[C@](C)(O)C2CC2)nc1-c1ccc(Cl)cc1 [Compound 9]
- Ki (CB1R [6]): 47.5 nM
- Functional profile at CB1R (in words) (CB1R [7]): inverse agonist
- Ki (CB2R): > 475 nM

Structure (SMILES): CCOC(=O)C(CC)(CC)NC(=O)c1cnc(OCC2CC2)c(-c2ccc(F)cc2)c1 [Compound 17, Ethyl 2-(6-(Cyclopropylmethoxy)-5-(4-fluorophenyl)nicotinamido)-2-ethylbutanoate]
- Ki (hCB1R [1]; [10]): 308 nM
- IC50 (hCB1R [3]): 3980 nM
- Emax (hCB1R [3]): -116%
- Ki (human CB2R; [12]): 6 nM
- Ki (human CB2R; hCB2R pKi ± SEM, CHO membranes): 6.46 nM
- Emax (hCB1R [4]): -48%
- IC50 (hCB1R [4]): 43.6 nM
- Functional activity at CB1R (in words) (hCB1R [4]): inverse agonists

Structure (SMILES): CCOC(=O)C(CC)(CC)NC(=O)c1cnc(OCCOC)c(-c2ccc(Cl)cc2)n1 [Compound 18, Ethyl 2-(6-(4-Chlorophenyl)-5-(2-methoxyethoxy)pyrazine-2-carboxamido)-2-ethylbutanoate]
- Ki (hCB1R [1]; [10]): 817 nM
- Ki (human CB2R; hCB2R pKi ± SEM, CHO membranes): 11.2 nM
- Emax (hCB1R [4]): -41%
- IC50 (hCB1R [4]): 191 nM
- Functional activity at CB1R (in words) (hCB1R [4]): inverse agonists

Structure (SMILES): O=C(NN1CCCCC1)c1nn(-c2ccc(Cl)cc2Cl)c2c1CCCc1cc(Cl)ccc1-2 [Compound 7, NESS-0327]
- Ki (CB1R [6]): 4.2 nM
- Functional profile at CB1R (in words) (CB1R [7]): neutral antagonist
- Ki (CB2R): 55.7 nM

Structure (SMILES): CCOC(=O)C(CC)(CC)NC(=O)c1cc(-c2cc(C(F)(F)F)ccc2C(F)(F)F)n(C[C@H]2CCCO2)c1C [Compound 14, Ethyl (R)-2-(5-(2,5-Bis(trifluoromethyl)phenyl)-2-methyl-1-((tetrahydrofuran-2-yl)methyl)-1H-pyrrole-3-carboxamido)-2-ethylbutanoate]
- Ki (hCB1R [1]; hCB1R pKi ± SEM, CHO membranes): 11 nM
- Ki(CB2R)/Ki(CB1R) selectivity (hCB1R [1]; radioligand binding Ki ratio): 28 fold
- IC50 (hCB1R [3]): 10 nM
- Emax (hCB1R [3]): -107%
- Ki (human CB2R; [11]): 306 nM
- Emax (hCB1R [4]): -46%
- IC50 (hCB1R [4]): 1.48 nM
- Functional activity at CB1R (in words) (hCB1R [4]): inverse agonists

Structure (SMILES): CC(C)[C@H](NC(=O)c1nn(Cc2cccc(F)c2)c2ccccc12)C(N)=O [Compound 10, AB-FUBINACA 3-F benzyl]
- Ki(CB2R)/Ki(CB1R) selectivity (CB1R [8]): 4 fold
- Ki (CB1R [6]): 12.6 nM
- Functional profile at CB1R (in words) (CB1R [7]): agonist
- Ki (CB2R): 52.5 nM

Structure (SMILES): Cc1c(C(=O)NN2CCOCC2)nn(-c2ccc(Cl)cc2Cl)c1-c1ccc(I)cc1 [AM281, reference compound]
- Variation of Emax (hCB1R [3]; antagonist mode, normalized to reference antagonist AM281): -100%
- Antagonist activity (cAMP assay) pEC50 or pIC50 ± SEM (hCB1R [3]; antagonist mode, n.a. is no activity): 7.0 ± 0.04

Structure (SMILES): CCC(CC)(NC(=O)c1cc(-c2cc(C(F)(F)F)ccc2C(F)(F)F)n(C[C@H]2CCCO2)c1C)C(=O)NCCOCCOCCNC(=O)OC(C)(C)C [Compound 22b, tert-Butyl (R)-(1-(5-(2,5-Bis(trifluoromethyl)phenyl)-2-methyl-1-((tetrahydrofuran-2-yl)methyl)-1H-pyrrol-3-yl)-3,3-diethyl-1,4-dioxo-8,11-dioxa-2,5-diazatridecan-13-yl)carbamate]
- Ki (hCB1R [1]; CHO membranes stably expressing human CB1R, means of three experiments, read-out: hCB1R Ki): 811 nM
- IC50 (hCB1R [3]): 1000 nM
- Emax (hCB1R [3]): -105%
- hCB2R % displacement at 10 µM (human CB2R): 22 ± 9%
- Ki (human CB2R; [11]): > 10000 nM
- Emax (hCB1R [4]): -69%
- Functional activity at CB1R (in words) (hCB1R [4]): inverse agonist
- IC50 (hCB1R [4]; read-out: Functional activity (cAMP assay) IC50): 131 nM

Structure (SMILES): Cc1c(C(=O)NC2CCCCC2)cc(-c2cc(C(F)(F)F)ccc2C(F)(F)F)n1CC1CCCO1 (stereo not drawn) [Compound 5]
- IC50 (CB1R [6]): 8 nM
- Functional profile at CB1R (in words) (CB1R [7]): inverse agonist
- IC50 (CB2R): > 80 nM

Structure (SMILES): CCCCCCC(C)(C)c1cc(O)c2c(c1)OC(C)(C)c1ccc(CNCCCCCCNC(=O)CCCCCC[N+]3=C(/C=C/C=C/C=C4/N(C)c5ccc(S(=O)(=O)O)cc5C4(C)C)C(C)(C)c4cc(S(=O)(=O)[O-])ccc43)cc1-2 [ABP511]
- Ki (hCB1R [9]): 3.5 nM

Structure (SMILES): CCOC(=O)C(CC)(CC)NC(=O)c1nn(Cc2cccc(F)c2)c2ccccc12 [Compound 19, Ethyl 2-Ethyl-2-(1-(3-fluorobenzyl)-1H-indazole-3-carboxamido)butanoate]
- Ki (hCB1R [1]; hCB1R pKi ± SEM, CHO membranes): 19.1 nM
- Ki (human CB2R; [12]): 1 nM
- Ki (human CB2R; hCB2R pKi ± SEM, CHO membranes): 0.631 nM
- EC50 (hCB1R [4]): 3.24 nM
- Emax (hCB1R [4]): 93%
- Functional activity at CB1R (in words) (hCB1R [4]): agonist

Structure (SMILES): CCC(CC)(NC(=O)c1nn(-c2ccc(Cl)cc2Cl)c(-c2ccc(Cl)cc2)c1C)C(=O)NCCOCCOCCNC(=O)OC(C)(C)C [Compound 23b, tert-Butyl (1-(5-(4-Chlorophenyl)-1-(2,4-dichlorophenyl)-4-methyl-1H-pyrazol-3-yl)-3,3-diethyl-1,4-dioxo-8,11-dioxa-2,5-diazatridecan-13-yl)carbamate]
- Ki (hCB1R [1]; [10]): 139 nM
- IC50 (hCB1R [3]): 1580 nM
- Emax (hCB1R [3]): -96%
- hCB2R % displacement at 10 µM (human CB2R): 44 ± 5%
- Ki (human CB2R; [12]): > 10000 nM
- Emax (hCB1R [4]): -44%
- IC50 (hCB1R [4]): 64.6 nM
- Functional activity at CB1R (in words) (hCB1R [4]): inverse agonist

Structure (SMILES): CCC(CC)(NC(=O)c1nn(-c2ccc(Cl)cc2Cl)c(-c2ccc(Cl)cc2)c1C)C(=O)NCCOCCOCCNc1ccc([N+](=O)[O-])c2nonc12 [Compound 30, 5-(4-Chlorophenyl)-1-(2,4-dichlorophenyl)-4-methyl-N-(3-((2-(2-(2-((7-nitrobenzo[c][1,2,5]oxadiazol-4-yl)amino)ethoxy)ethoxy)ethyl)carbamoyl)pentan-3-yl)-1H-pyrazole-3-carboxamide]
- Ki (hCB1R [1]; [10]): 428 nM
- Ki(CB2R)/Ki(CB1R) (hCB1R [1]; radioligand binding Ki ratio): > 23
- Abs (absorbance maximum) [2]: 475 nm
- Em (emission maximum) [2]: 570 nm
- QY (quantum yield) [2]: 0.80%
- hCB2R % displacement at 10 µM (human CB2R): 49 ± 3%
- Ki (human CB2R; [12]): > 10000 nM
- Emax (hCB1R [4]): -41%
- IC50 (hCB1R [4]): 60.3 nM
- Functional activity at CB1R (in words) (hCB1R [4]): Inverse agonist

Structure (SMILES): CCC(CC)(NC(=O)c1nn(-c2ccc(Cl)cc2Cl)c2c1CCCc1cc(Cl)ccc1-2)C(=O)NCCOCCOCCNc1ccc([N+](=O)[O-])c2nonc12 [Compound 32, 8-Chloro-1-(2,4-dichlorophenyl)-N-(3-((2-(2-(2-((7-nitrobenzo[c][1,2,5]oxadiazol-4-yl)amino)ethoxy)ethoxy)ethyl)carbamoyl)pentan-3-yl)-1,4,5,6-tetrahydrobenzo[6,7]cyclohepta[1,2-c]pyrazole-3-carboxamide]
- hCB1R % displacement at 10 µM (hCB1R [1]; [3H]CP55,940 displacement at 10 µM compound, ± SEM): 35 ± 6%
- Ki (hCB1R [1]; [10]): > 10000 nM
- Abs (absorbance maximum) [2]: 485 nm
- Em (emission maximum) [2]: 570 nm
- QY (quantum yield) [2]: 1.30%
- Ki (human CB2R; [12]): 309 nM

Structure (SMILES): O=C(NC1CCCCC1O)c1cnc(OCC2CC2)c(-c2ccc(F)cc2)c1 (stereo not drawn) [Compound 8]
- Ki (CB1R [6]): 42.8 nM
- Functional profile at CB1R (in words) (CB1R [7]): inverse agonist
- Ki (CB2R): > 10000 nM

Structure (SMILES): CCOC(=O)C(CC)(CC)NC(=O)c1nn(-c2ccc(Cl)cc2Cl)c(-c2ccc(Cl)cc2)c1C [Compound 15, Ethyl 2-(5-(4-Chlorophenyl)-1-(2,4-dichlorophenyl)-4-methyl-1H-pyrazole-3-carboxamido)-2-ethylbutanoate]
- Ki (hCB1R [1]; hCB1R pKi ± SEM, CHO membranes): 28.2 nM
- Ki (human CB2R; [12]): 9 nM
- Ki (human CB2R; hCB2R pKi ± SEM, CHO membranes): 8.51 nM
- Emax (hCB1R [4]): -42%
- IC50 (hCB1R [4]): 13.2 nM
- Functional activity at CB1R (in words) (hCB1R [4]): inverse agonists

— article PMC11284800 (Journal of Medicinal Chemistry, 2024)
